Reference: patent US20110217740A1, “METHODS, MICROORGANISMS, AND COMPOSITIONS FOR PLANT BIOMASS PROCESSING” (University of Georgia Research, priority 2008, published 2011)

Tested on: A. thermophilum
Assay: Sensitivity of A. thermophilum to selective agents
Format: cell-based, Anaerocellum thermophilum
Details: selective agent in growth medium
Procedure: 5× Base Salts: 140.00 g/L NaCl, 17.50 g/L, MgSO4.7H2O, 13.50 g/L MgCl2.6H2O, 1.65 g/L KCl, 1.25 g/L NH4Cl, 0.70 g/L CaCl2.2H2O. Liquid complex cellobiose (CC) media (pH 6.8): 200 mL/L 5× Base salts, 1 mL/L 1000× Trace minerals, 100 μL/L 100 mM Na2WO4*2H2O, 50 μL/L Resazurin (5 mg/mL), 5 mL/L 10% w/v Yeast Extract, 50 mL/L 10% w/v Casein hydrolysate, 35 mL/L 10% w/v Cellobiose, 0.5 g/L Cysteine, 0.5g Na2S, 1 g/L NaHCO3, 1 mL/L 1M K2HPO4 buffer. Solid complex cellobiose (CC) media: 1× media +1% phytagel solution (Sigma Chemical Company, St. Louis, Mo.). CC plates containing 5-fluoroorotic acid (5-FOA): to ensure complete 5-FOA solvation, 1M NaOH is dripped into the solution until a murky consistency is reached at around pH 10, cysteine is then used to lower the pH to 7, where the solution turns transparent. Simvastatin plates: solid complex cellobiose plates with the indicated amount of simvastatin added. A. thermophilum is sensitive to 8 millimolar (mM) 5-FOA, 30 mM hygromycin, 8 micromolar (μM) simvastatin, and 50 μM apramycin.

SMILES | concentration to which A. thermophilum is sensitive [µM]
O=C(O)c1[nH]c(=O)[nH]c(=O)c1F [5-FOA, 5-fluoroorotic acid] | 8000
CN[C@@H]1[C@@H](O[C@H]2O[C@H](CO)[C@@H](N)[C@H](O)[C@H]2O)OC2C[C@@H](N)[C@@H](O[C@H]3[C@H](O)[C@@H](O)[C@H](N)C[C@@H]3N)OC2[C@@H]1O (stereo partly drawn) [apramycin] | 50
CCC(C)(C)C(=O)O[C@H]1C[C@@H](C)C=C2C=C[C@H](C)[C@H](CC[C@@H]3C[C@@H](O)CC(=O)O3)[C@H]21 [simvastatin] | 8
